Reference: patent publication US9096591B2, “Tetracyclic compounds” (Medivation Technologies, Inc., priority 2007, dated 2015)
Read-outs that look alike come from different tables or passages of the source.

Columns and labels:
[1] = biological target: T1, human recombinant histamine H1 receptor (Homo sapiens, UniProt P35367); test: Histamine H1 radioligand binding ([3H]Pyrilamine); conditions: for inhibition at 0.1 µM: 0.1 μM compound; for inhibition at 0.01 µM: 10 nM (0.01 μM) compound
T1 construct: expressed in transfected cells; host or cells: CHO cells
T1 sequence (P35367 whole entry): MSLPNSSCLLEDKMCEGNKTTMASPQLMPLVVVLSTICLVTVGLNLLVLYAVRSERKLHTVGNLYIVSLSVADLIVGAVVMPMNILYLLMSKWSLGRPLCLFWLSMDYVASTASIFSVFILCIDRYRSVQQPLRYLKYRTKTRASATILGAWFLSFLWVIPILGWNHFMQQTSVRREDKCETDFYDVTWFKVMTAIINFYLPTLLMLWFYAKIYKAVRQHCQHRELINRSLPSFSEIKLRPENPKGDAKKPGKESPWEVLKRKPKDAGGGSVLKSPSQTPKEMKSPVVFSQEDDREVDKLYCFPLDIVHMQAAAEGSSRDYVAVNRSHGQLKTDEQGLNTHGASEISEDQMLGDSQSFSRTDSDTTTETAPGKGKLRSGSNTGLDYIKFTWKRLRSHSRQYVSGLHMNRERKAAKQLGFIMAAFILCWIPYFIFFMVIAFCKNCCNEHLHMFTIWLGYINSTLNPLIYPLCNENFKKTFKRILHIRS
Method in brief: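 Receptor expressed in CHO cells, assayed in 50 mM Tris-HCl pH 7.4 with 2 mM MgCl2, 100 mM NaCl, 250 mM sucrose. Compounds tested at 1 μM in 1% DMSO; non-specific binding set with 1 μM pyrilamine. Filter-bound radioactivity counted; values are percent inhibition of specific binding.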

[2] = biological target: T2, human recombinant adrenergic α2A receptor (Homo sapiens, UniProt P08913); test: Adrenergic α2A radioligand binding ([3H]MK-912); set-up: Inhibition of ligand binding, Adren. alpha2A: concentration or dose not given beside the values; conditions: percent inhibition of specific binding
T2 construct: expressed in transfected cells; host or cells: insect Sf9 cells
T2 sequence (P08913 1-465): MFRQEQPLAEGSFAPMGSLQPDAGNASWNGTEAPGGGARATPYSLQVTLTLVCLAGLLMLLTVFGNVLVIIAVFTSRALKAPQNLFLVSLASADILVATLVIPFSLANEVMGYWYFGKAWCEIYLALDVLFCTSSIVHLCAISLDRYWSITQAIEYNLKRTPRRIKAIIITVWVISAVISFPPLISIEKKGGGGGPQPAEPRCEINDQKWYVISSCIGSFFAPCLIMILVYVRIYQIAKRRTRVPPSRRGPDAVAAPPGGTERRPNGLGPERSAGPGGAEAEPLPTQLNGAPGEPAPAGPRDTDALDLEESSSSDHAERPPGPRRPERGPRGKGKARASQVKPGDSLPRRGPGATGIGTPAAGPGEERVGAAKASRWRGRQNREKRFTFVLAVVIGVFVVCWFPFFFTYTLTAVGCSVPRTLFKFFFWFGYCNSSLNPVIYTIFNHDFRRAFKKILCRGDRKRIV
Protocol: To evaluate in radioligand binding assays the activity of compounds of the invention, human recombinant adrenergic α2A receptor expressed in insect Sf9 cells (Uhlen S et al. J Pharmacol Exp Ther. 271:1558, 1994) in a modified Tris-HCl buffer (50 mM Tris-HCl, pH 7.4, 12.5 mM MgCl2, 2 mM EDTA) was used. Compounds of invention were incubated with 1 nM [^3H]MK-912 for 60 minutes at 25° C. MK912 is (2S-trans)-1,3,4,5′,6,6′,7,12b-octahydro-1′,3′-dimethyl-spiro[2H-benzofuro[2,3-a]quinolizine-2,4′(1′H)-pyrimidin]-2′(3′H)-one hydrochloride Non-specific binding was estimated in the presence of 10 μM WB-4101 (2-(2,6-Dimethoxyphenoxyethyl)aminomethyl-1,4-benzodioxane hydrochloride). Receptor proteins were filtered and washed, the filters were then counted to determine [^3H]MK-912 specifically bound. […] Biochemical assay results are presented as the percent inhibition of specific binding in Table 6.

[3] = biological target: T3, human recombinant adrenergic α2B receptor (Homo sapiens, UniProt P18089); test: Adrenergic α2B radioligand binding ([3H]Rauwolscine); set-up: Inhibition of ligand binding, Adren. alpha2B: concentration or dose not given beside the values; conditions: percent inhibition of specific binding
T3 construct: expressed in transfected cells; host or cells: CHO-K1 cells
T3 sequence (P18089 1-450): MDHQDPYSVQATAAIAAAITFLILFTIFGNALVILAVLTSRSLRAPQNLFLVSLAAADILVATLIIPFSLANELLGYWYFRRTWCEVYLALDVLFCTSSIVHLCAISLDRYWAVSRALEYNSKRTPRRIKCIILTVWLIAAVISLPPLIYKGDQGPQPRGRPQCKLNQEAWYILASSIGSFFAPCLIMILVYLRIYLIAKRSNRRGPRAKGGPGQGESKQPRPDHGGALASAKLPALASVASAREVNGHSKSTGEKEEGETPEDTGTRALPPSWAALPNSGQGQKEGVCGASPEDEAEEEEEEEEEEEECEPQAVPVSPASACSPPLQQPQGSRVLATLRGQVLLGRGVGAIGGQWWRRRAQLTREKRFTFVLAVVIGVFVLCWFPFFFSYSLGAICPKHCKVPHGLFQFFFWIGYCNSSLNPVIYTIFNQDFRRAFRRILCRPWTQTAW
Protocol: To evaluate in radioligand binding assays the activity of compounds of the invention, human recombinant adrenergic α2B receptor expressed in Chinese hamster ovary (CHO-K1) cells (Uhlen S et al. Eur J. Pharmacol. 343(1):93, 1998) in a modified Tris-HCl buffer (50 mM Tris-HCl, pH 7.4, 12.5 mM MgCl2, 1 mM EDTA, 0.2% BSA) was used. Compounds of the invention were incubated with 2.5 nM [^3H]Rauwolscine for 60 minutes at 25° C. Non-specific binding was estimated in the presence of 10 μM Prozosin. Receptor proteins were filtered and washed, the filters were then counted to determine [^3H]Rauwolscine specifically bound. […] Biochemical assay results are presented as the percent inhibition of specific binding in Table 6.

[4] = biological target: T4, human recombinant dopamine D2L receptor (Homo sapiens, UniProt P14416); test: Dopamine D2L radioligand binding ([3H]Spiperone); conditions: percent inhibition of specific binding
T4 construct: expressed in transfected cells; host or cells: CHO cells
T4 sequence (P14416 whole entry): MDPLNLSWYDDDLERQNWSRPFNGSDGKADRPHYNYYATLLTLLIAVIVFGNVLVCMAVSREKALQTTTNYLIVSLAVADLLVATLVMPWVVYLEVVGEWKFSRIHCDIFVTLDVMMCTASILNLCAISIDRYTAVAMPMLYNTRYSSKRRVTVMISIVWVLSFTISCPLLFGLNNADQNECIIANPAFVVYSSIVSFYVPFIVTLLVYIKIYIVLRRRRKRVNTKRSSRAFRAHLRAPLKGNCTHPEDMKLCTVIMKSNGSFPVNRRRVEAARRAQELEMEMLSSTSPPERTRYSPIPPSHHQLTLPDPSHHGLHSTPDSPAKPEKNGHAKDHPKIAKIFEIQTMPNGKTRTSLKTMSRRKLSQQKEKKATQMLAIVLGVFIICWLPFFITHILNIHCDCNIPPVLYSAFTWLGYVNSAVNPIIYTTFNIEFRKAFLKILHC
Protocol: Non-specific binding was estimated in the presence of 10 μM Haloperidol. Receptor proteins were filtered and washed, the filters were then counted to determine [^3H]Spiperone specifically bound. […] Biochemical assay results are presented as the percent inhibition of specific binding in Table 6.

[5] = biological target: T5, human recombinant serotonin (5-Hydroxytryptamine) 5-HT6 receptor (Homo sapiens, UniProt P50406); test: Serotonin 5-HT6 radioligand binding ([3H]LSD); set-up: Inhibition of ligand binding, Ser. 5-HT6: concentration or dose not given beside the values; conditions: percent inhibition of specific binding
T5 construct: expressed in transfected cells; host or cells: human HeLa cells
T5 sequence (P50406 whole entry): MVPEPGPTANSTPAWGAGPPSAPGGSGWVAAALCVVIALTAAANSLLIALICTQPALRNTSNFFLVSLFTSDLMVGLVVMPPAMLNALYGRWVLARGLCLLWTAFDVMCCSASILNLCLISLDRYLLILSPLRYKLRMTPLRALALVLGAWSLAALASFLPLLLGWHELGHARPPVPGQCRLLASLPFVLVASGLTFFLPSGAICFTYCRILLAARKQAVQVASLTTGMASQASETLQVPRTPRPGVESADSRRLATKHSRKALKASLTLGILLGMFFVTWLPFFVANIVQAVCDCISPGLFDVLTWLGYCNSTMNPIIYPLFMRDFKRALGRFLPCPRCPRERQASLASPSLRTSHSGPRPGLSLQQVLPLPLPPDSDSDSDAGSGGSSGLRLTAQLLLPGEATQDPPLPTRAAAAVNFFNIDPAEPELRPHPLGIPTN
Source text: Receptor proteins were filtered and washed, the filters were then counted to determine [3H]LSD specifically bound. […] Biochemical assay results are presented as the percent inhibition of specific binding in Table 6.

[6] = 1 μM compound, […] [3H]Pyrilamine, read-out: Histamine Binding H1, percent inhibition of specific binding
[7] = percent inhibition of specific binding, screened at 1 μM, read-out: Inhibition of ligand binding, Hist. H1
[8] = […] [3H]Pyrilamine, read-out: Histamine Binding H1, percent inhibition of specific binding

CCOC(=O)N1CCc2c(c3cc(Br)ccc3n2CCc2ccc(C)nc2)C1 [Compound 18, ethyl 8-bromo-3,4-dihydro-5-(2-(6-methylpyridin-3-yl)ethyl)-1H-pyrido[4,3-b]indole-2(5H)-carboxylate]
inhibition at 1 µM [1, 6]: -14%
inhibition at 1 µM [1, 7]: -14%
Inhibition of ligand binding, Adren. alpha2A [2]: −10%
Inhibition of ligand binding, Adren. alpha2B [3]: −8%
Inhibition of ligand binding, Dop. D2L [4]: −7%
Inhibition of ligand binding, Ser. 5-HT6 [5]: 6%

CCOC(=O)N1CCc2c(c3cc(-c4cccnc4)ccc3n2CCc2ccc(C)nc2)C1 [Compound 19, ethyl 3,4-dihydro-5-(2-(6-methylpyridin-3-yl)ethyl)-8-(pyridin-3-yl)-1H-pyrido[4,3-b]indole-2(5H)-carboxylate]
inhibition at 1 µM [1, 6]: -3%
inhibition at 1 µM [1, 7]: -3%
Inhibition of ligand binding, Adren. alpha2A [2]: −8%
Inhibition of ligand binding, Adren. alpha2B [3]: −8%
Inhibition of ligand binding, Dop. D2L [4]: −5%
Inhibition of ligand binding, Ser. 5-HT6 [5]: −5%

CCOC(=O)N1CCc2c(c3cc(C)ccc3n2CCc2ccccc2)C1 [Compound 24, ethyl 3,4-dihydro-8-methyl-5-phenethyl-1H-pyrido[4,3-b]indole-2(5H)-carboxylate]
inhibition at 1 µM [1, 6]: -4%
inhibition at 1 µM [1, 7]: -4%
Inhibition of ligand binding, Adren. alpha2A [2]: 7%
Inhibition of ligand binding, Adren. alpha2B [3]: −1%
Inhibition of ligand binding, Dop. D2L [4]: 3%
Inhibition of ligand binding, Ser. 5-HT6 [5]: −4%

Cc1ccc(CCn2c3c(c4cc(C)ccc42)CN(C)CC3)cc1 [Compound 25, 2,3,4,5-tetrahydro-2,8-dimethyl-5-(4-methylphenethyl)-1H-pyrido[4,3-b]indole]
inhibition at 0.03 µM ([1]; 0.03 μM compound, […] [3H]Pyrilamine, read-out: Histamine Binding H1, percent inhibition of specific binding): 71%
inhibition at 0.1 µM [1, 8]: 89%
inhibition at 1 µM [1, 6]: 97%
inhibition at 1 µM [1, 7]: 97%
Inhibition of ligand binding, Adren. alpha2A [2]: 99%
Inhibition of ligand binding, Adren. alpha2B [3]: 108%
Inhibition of ligand binding, Dop. D2L [4]: 94%
Inhibition of ligand binding, Ser. 5-HT6 [5]: 103%

CN1CCc2c(c3cc(Cl)ccc3n2CCc2ccccn2)C1 [Compound 30, 8-chloro-2,3,4,5-tetrahydro-2-methyl-5-(2-(pyridin-2-yl)ethyl)-1H-pyrido[4,3-b]indole]
inhibition at 1 µM [1, 6]: 80%
inhibition at 1 µM [1, 7]: 80%
Inhibition of ligand binding, Adren. alpha2A [2]: 84%
Inhibition of ligand binding, Adren. alpha2B [3]: 102%
Inhibition of ligand binding, Dop. D2L [4]: 29%
Inhibition of ligand binding, Ser. 5-HT6 [5]: 90%

Cc1ccc2c(c1)c1c(n2CCc2ccc(Cl)cc2)CCN(C)C1 [Compound 32, 5-(4-chlorophenethyl)-2,3,4,5-tetrahydro-2,8-dimethyl-1H-pyrido[4,3-b]indole]
inhibition at 0.01 µM [1, 8]: 52%
inhibition at 0.1 µM [1, 8]: 87%
inhibition at 1 µM [1, 6]: 101%
inhibition at 1 µM [1, 7]: 101%
Inhibition of ligand binding, Adren. alpha2A [2]: 97%
Inhibition of ligand binding, Adren. alpha2B [3]: 110%
Inhibition of ligand binding, Dop. D2L [4]: 82%
Inhibition of ligand binding, Ser. 5-HT6 [5]: 101%

Cc1ccc2c(c1)c1c(n2CCc2ccc(F)cc2)CCN(C)C1 [Compound 33, 5-(4-fluorophenethyl)-2,3,4,5-tetrahydro-2,8-dimethyl-1H-pyrido[4,3-b]indole]
inhibition at 0.01 µM [1, 8]: 46%
inhibition at 0.1 µM [1, 8]: 89%
inhibition at 1 µM [1, 6]: 98%
inhibition at 1 µM [1, 7]: 98%
Inhibition of ligand binding, Adren. alpha2A [2]: 98%
Inhibition of ligand binding, Adren. alpha2B [3]: 100%
Inhibition of ligand binding, Dop. D2L [4]: 88%
Inhibition of ligand binding, Ser. 5-HT6 [5]: 100%

CN1CCc2c(c3cc(Cl)ccc3n2CCc2ccccc2)C1 [Compound 36, 8-chloro-2,3,4,5-tetrahydro-2-methyl-5-phenethyl-1H-pyrido[4,3-b]indole]
inhibition at 0.01 µM [1, 8]: 48%
inhibition at 0.1 µM [1, 8]: 91%
inhibition at 1 µM [1, 6]: 99%
inhibition at 1 µM [1, 7]: 99%
Inhibition of ligand binding, Adren. alpha2A [2]: 97%
Inhibition of ligand binding, Adren. alpha2B [3]: 104%
Inhibition of ligand binding, Dop. D2L [4]: 92%
Inhibition of ligand binding, Ser. 5-HT6 [5]: 104%

Cc1ccc2c(c1)c1c(n2CCC2CCCCC2)CCN(C)C1 [Compound 163, 5-(2-cyclohexylethyl)-2,3,4,5-tetrahydro-2,8-dimethyl-1H-pyrido[4,3-b]indole]
inhibition at 0.01 µM [1, 8]: 59%
inhibition at 0.1 µM [1, 8]: 92%
inhibition at 1 µM [1, 6]: 103%
inhibition at 1 µM [1, 7]: 103%
Inhibition of ligand binding, Adren. alpha2A [2]: 93%
Inhibition of ligand binding, Adren. alpha2B [3]: 104%
Inhibition of ligand binding, Dop. D2L [4]: 36%
Inhibition of ligand binding, Ser. 5-HT6 [5]: 99%

CN1CCc2c(c3cc(Cl)ccc3n2CC(=O)N2CCCCC2)C1 [Compound 236, 2-(8-chloro-1,2,3,4-tetrahydro-2-methylpyrido[4,3-b]indol-5-yl)-1-(piperidin-1-yl)ethanone]
inhibition at 1 µM [1, 6]: 42%
inhibition at 1 µM [1, 7]: 42%
Inhibition of ligand binding, Adren. alpha2A [2]: 0%
Inhibition of ligand binding, Adren. alpha2B [3]: 9%
Inhibition of ligand binding, Dop. D2L [4]: 1%
Inhibition of ligand binding, Ser. 5-HT6 [5]: 18%

CC1CCN(C(=O)Cn2c3c(c4cc(Cl)ccc42)CN(C)CC3)CC1 [Compound 237, 2-(8-chloro-1,2,3,4-tetrahydro-2-methylpyrido[4,3-b]indol-5-yl)-1-(4-methylpiperidin-1-yl)ethanone]
inhibition at 1 µM [1, 6]: 77%
inhibition at 1 µM [1, 7]: 77%
Inhibition of ligand binding, Adren. alpha2A [2]: 26%
Inhibition of ligand binding, Adren. alpha2B [3]: 12%
Inhibition of ligand binding, Dop. D2L [4]: −1%
Inhibition of ligand binding, Ser. 5-HT6 [5]: 20%

CN1CCc2c(c3cc(Cl)ccc3n2CC(=O)N2CCOCC2)C1 [Compound 238, 2-(8-chloro-1,2,3,4-tetrahydro-2-methylpyrido[4,3-b]indol-5-yl)-1-morpholinoethanone]
inhibition at 1 µM [1, 6]: 26%
inhibition at 1 µM [1, 7]: 26%
Inhibition of ligand binding, Adren. alpha2A [2]: −13%
Inhibition of ligand binding, Adren. alpha2B [3]: 14%
Inhibition of ligand binding, Dop. D2L [4]: −1%
Inhibition of ligand binding, Ser. 5-HT6 [5]: 5%

CN1CCc2c(c3cc(Cl)ccc3n2CC(=O)N2CCSCC2)C1 [Compound 239, 2-(8-chloro-1,2,3,4-tetrahydro-2-methylpyrido[4,3-b]indol-5-yl)-1-thiomorpholinoethanone]
inhibition at 1 µM [1, 6]: 50%
inhibition at 1 µM [1, 7]: 50%
Inhibition of ligand binding, Adren. alpha2A [2]: 0%
Inhibition of ligand binding, Adren. alpha2B [3]: 24%
Inhibition of ligand binding, Dop. D2L [4]: −1%
Inhibition of ligand binding, Ser. 5-HT6 [5]: 8%
